Experimental data as given in ChEMBL document CHEMBL6103630, “Discovery of Novel 2,4,5-Trisubstituted Pyrimidine Derivatives as Potent and Selective FGFR Inhibitors against Gatekeeper Mutants for the Treatment of NSCLC” (J Med Chem, 2025).
Activity calls are given as the source filed them. The calls are words filed in the database; no cut-off is given here.

How the values were obtained:
[1] = biological target: Fibroblast growth factor receptor 4 (Homo sapiens, UniProt P22455); assay: Inhibition of wild type FGFR4 (unknown origin) by caliper mobility shift assay
Chain of Fibroblast growth factor receptor 4 (P22455 whole entry): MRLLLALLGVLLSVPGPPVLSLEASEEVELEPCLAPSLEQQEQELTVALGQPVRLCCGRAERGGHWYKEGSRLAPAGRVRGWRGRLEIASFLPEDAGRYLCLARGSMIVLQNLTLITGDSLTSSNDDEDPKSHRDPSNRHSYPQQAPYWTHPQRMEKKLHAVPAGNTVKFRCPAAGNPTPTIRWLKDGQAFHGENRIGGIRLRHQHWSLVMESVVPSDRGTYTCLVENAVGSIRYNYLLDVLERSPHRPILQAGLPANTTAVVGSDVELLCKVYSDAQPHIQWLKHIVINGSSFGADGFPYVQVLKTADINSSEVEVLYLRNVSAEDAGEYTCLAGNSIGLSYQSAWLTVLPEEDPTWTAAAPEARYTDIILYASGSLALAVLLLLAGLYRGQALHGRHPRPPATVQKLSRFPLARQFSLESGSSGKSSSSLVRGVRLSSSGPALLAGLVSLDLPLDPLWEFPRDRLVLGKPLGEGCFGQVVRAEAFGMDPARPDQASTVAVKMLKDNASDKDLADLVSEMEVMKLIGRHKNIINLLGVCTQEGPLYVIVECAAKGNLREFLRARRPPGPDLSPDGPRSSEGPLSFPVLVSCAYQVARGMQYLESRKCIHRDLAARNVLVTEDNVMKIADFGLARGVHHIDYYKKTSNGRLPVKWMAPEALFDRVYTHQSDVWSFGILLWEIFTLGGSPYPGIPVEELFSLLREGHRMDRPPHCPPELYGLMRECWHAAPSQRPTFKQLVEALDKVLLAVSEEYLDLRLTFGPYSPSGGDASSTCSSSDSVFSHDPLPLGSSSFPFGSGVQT

A549 [2] = assay: Inhibition of AKT (unknown origin) phosphorylation in human A549 cells at 250 to 1000 nM by Western blotting analysis; format: cell-based; settings: dose 250-1000 nM
[3] = biological target: T1, Fibroblast growth factor receptor 2 (Homo sapiens, UniProt P21802); assay: Binding affinity to FGFR2 (unknown origin) at 0.1 uM
T1 sequence (P21802 22-821 limits assumed): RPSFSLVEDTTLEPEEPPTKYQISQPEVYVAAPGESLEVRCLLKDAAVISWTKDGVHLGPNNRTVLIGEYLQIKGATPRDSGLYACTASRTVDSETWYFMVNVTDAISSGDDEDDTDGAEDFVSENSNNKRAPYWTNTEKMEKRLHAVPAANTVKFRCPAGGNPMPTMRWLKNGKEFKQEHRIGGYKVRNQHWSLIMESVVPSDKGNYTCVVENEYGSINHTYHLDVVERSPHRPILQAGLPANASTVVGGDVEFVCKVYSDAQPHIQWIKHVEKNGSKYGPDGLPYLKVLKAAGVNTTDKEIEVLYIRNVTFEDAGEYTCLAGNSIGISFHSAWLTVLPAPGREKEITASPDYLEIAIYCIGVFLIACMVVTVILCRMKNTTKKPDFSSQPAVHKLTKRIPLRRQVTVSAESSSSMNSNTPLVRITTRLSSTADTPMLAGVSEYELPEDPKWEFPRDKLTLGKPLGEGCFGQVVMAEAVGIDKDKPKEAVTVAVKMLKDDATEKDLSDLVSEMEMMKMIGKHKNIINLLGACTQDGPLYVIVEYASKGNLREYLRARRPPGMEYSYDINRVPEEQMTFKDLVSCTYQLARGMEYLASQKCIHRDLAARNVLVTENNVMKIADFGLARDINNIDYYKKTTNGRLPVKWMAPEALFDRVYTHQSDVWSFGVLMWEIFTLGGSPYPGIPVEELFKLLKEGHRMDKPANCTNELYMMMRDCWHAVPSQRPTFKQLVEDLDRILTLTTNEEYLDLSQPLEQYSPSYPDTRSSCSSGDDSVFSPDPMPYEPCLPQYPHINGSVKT

[4] = Toxicity in ICR mouse assessed as change in heart weight at 80 mg/kg, po measured after 7 days; format: organism-based; settings: in vivo, 168 h, time 7 day
NCI-H1581 [5] = assay: Inhibition of cell migration in human NCI-H1581 cells at 40 nM incubated upto 72 hrs by wound healing assay (reference value: 80%); format: functional
Mus musculus [6] = assay: In vivo inhibition of FGFR1 signaling pathway in BALB/c nude mouse xenografted with rat L6 cells harboring FGFR1 V561M mutant assessed as suppression of FGFR1 phosphorylation in tumor at 60 mg/kg by Western blotting analysis; format: functional, organism-based
[7] = Toxicity in BALB/c nude mouse xenografted with human NCI-H1581 cells assessed as change in lung weight and measured after 14 days; format: tissue-based; settings: 336 h, time 14 day
A549 [8] = assay: Inhibition of colony formation in human A549 cells at 0.25 to 1.0 uM incubated for 48 hrs by crystal violet staining based assay; format: functional, cell-based; settings: dose 0.25-1 µM
[9] = Toxicity in BALB/c nude mouse xenografted with human NCI-H1581 cells assessed as change in body weight
[10] = Hepatotoxicity in ICR mouse assessed as change in ALT level at 80 mg/kg, po; format: toxicity, organism-based; settings: in vivo
[11] = biological target: T1, Fibroblast growth factor receptor 2; assay: Covalent irreversible binding affinity to FGFR2 (unknown origin) by MALDI-TOF MS analysis
[12] = biological target: Fibroblast growth factor receptor 2 (Homo sapiens, UniProt P21802, V564F)
Chain of Fibroblast growth factor receptor 2 (Homo sapiens, UniProt P21802, V564F) (P21802 22-821 V564F limits assumed): as the sequence (P21802 22-821 limits assumed) above, with V543F counted along it

Mus musculus [13] = assay: In vivo inhibition of AKT phosphorylation in BALB/c nude mouse xenografted with human NCI-H1581 cells assessed as reduction in AKT phosphorylation level in tumor by Western blotting analysis; format: functional, organism-based
NCI-H1581 [14] = assay: Antitumor activity against human NCI-H1581 cells xenografted in BALB/c nude mouse assessed as induction of apoptosis in tumor by H and E staining based analysis; format: functional, cell-based
NCI-H1581 [15] = assay: Inhibition of colony formation in human NCI-H1581 cells at 10 nM incubated for 48 hrs by crystal violet staining based assay; format: functional, cell-based
[16] = biological target: Epidermal growth factor receptor (Homo sapiens) (UniProt P00533); assay: Inhibition of EGFR (unknown origin)
Chain of Epidermal growth factor receptor (Homo sapiens) (P00533 whole entry): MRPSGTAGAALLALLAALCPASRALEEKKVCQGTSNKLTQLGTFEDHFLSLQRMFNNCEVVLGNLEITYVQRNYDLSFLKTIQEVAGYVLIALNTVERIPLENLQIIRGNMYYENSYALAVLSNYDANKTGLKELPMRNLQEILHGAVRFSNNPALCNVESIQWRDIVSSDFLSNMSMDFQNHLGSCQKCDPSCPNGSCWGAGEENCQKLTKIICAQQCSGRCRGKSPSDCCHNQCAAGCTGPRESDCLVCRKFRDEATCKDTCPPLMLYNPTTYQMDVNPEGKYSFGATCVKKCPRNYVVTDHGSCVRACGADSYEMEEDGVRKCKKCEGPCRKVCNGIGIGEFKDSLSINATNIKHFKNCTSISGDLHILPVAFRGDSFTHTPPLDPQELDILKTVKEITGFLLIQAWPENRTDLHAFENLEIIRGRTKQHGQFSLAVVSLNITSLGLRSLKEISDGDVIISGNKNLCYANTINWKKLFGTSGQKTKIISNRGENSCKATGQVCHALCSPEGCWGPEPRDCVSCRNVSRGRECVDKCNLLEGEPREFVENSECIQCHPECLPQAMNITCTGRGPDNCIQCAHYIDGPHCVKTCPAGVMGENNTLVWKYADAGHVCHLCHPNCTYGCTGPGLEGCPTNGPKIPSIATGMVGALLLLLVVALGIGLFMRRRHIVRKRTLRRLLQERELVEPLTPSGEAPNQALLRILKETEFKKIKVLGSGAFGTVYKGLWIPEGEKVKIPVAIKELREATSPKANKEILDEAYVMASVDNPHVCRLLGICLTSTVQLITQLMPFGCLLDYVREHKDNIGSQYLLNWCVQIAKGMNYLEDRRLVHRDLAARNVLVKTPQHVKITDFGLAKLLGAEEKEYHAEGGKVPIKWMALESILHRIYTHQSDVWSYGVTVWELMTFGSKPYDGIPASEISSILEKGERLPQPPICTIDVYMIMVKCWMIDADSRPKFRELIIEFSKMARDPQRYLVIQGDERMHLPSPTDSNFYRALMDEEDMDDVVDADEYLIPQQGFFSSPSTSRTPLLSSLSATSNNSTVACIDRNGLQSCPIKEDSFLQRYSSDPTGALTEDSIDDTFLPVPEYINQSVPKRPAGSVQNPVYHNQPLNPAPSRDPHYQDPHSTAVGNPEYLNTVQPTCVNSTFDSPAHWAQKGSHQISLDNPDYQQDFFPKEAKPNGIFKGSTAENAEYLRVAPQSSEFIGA

[17] = Cmax in male Sprague-Dawley rat at 2 mg/kg, iv by UHPLC-MS/MS analysis; format: ADME, organism-based; settings: in vivo
Mus musculus [18] = assay: In vivo inhibition of AKT phosphorylation in BALB/c nude mouse xenografted with rat L6 cells harboring FGFR1 V561M mutant assessed as suppression of AKT level in tumor at 60 mg/kg by Western blotting analysis; format: functional, organism-based
L6 = assay: Antitumor activity against rat L6 cells harboring FGFR1 V561M mutant xenografted in BALB/c nude mouse assessed as induction of apoptosis in tumor at 30 to 60 mg/kg by H and E staining based analysis; format: functional, organism-based; settings: dose 30-60 mg/kg
[19] = Toxicity in BALB/c nude mouse xenografted with human NCI-H1581 cells assessed as change in spleen weight and measured after 14 days; settings: 336 h, time 14 day
[20] = Toxicity in ICR mouse assessed as histopathological changes in kidney at 80 mg/kg, po by H and E staining based analysis; format: organism-based; settings: in vivo
NCI-H1581 [21] = assay: cells; settings: Homo sapiens, NCI-H1581, 48 h
Description: Antiproliferative activity against human NCI-H1581 cells assessed as inhibition of cell proliferation incubated for 48 hrs by MTT assay

[22] = Toxicity in BALB/c nude mouse xenografted with human NCI-H1581 cells assessed as change in kidney weight and measured after 14 days; format: tissue-based; settings: 336 h, time 14 day
[23] = Toxicity in ICR mouse assessed as histopathological changes in liver at 80 mg/kg, po by H and E staining based analysis; format: organism-based; settings: in vivo
[24] = AUC(0 to infinity) in male Sprague-Dawley rat at 10 mg/kg, po by UHPLC-MS/MS analysis; format: ADME, organism-based; settings: in vivo
[25] = biological target: Fibroblast growth factor receptor 3 (Homo sapiens, UniProt P22607); assay: Inhibition of wild type FGFR3 (unknown origin) by caliper mobility shift assay
Chain of Fibroblast growth factor receptor 3 (P22607 whole entry): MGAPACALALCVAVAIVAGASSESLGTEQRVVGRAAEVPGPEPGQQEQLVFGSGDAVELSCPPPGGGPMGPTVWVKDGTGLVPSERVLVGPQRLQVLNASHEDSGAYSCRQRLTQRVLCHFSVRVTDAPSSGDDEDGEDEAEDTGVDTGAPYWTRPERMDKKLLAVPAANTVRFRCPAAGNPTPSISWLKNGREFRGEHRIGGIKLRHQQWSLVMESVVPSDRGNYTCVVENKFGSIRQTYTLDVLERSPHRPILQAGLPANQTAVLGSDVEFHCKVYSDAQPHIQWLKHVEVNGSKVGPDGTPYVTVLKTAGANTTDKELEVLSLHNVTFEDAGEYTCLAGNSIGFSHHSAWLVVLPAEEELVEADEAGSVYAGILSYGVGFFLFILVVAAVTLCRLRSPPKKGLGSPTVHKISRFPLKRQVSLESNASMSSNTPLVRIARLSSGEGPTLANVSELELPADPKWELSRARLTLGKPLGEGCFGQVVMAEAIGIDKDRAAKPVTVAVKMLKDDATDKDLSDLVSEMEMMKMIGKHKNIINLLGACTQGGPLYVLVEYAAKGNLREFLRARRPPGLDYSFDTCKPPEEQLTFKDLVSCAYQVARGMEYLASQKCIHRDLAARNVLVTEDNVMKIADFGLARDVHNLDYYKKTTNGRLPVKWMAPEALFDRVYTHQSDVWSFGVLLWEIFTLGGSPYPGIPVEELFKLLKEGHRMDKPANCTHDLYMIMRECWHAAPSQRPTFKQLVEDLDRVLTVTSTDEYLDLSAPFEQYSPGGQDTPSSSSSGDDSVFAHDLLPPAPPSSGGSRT

A549 [26] = assay: cells; settings: Homo sapiens, A549, 48 h
Description: Antiproliferative activity against human A549 cells assessed as inhibition of cell proliferation incubated for 48 hrs by MTT assay

[27] = Toxicity in BALB/c nude mouse xenografted with rat L6 cells harboring FGFR V561M mutant assessed as change in spleen weight at 30 to 60 mg/kg and measured daily for 14 days; format: organism-based; settings: in vivo, 336 h, dose 30-60 mg/kg, time 14 day
[28] = Toxicity in BALB/c nude mouse xenografted with human NCI-H1581 cells assessed as change in heart weight and measured after 14 days; format: tissue-based; settings: 336 h, time 14 day
NCI-H1581 [29] = assay: Inhibition of cell adhesion in human NCI-H1581 cells by crystal violet staining based analysis; format: functional; settings: dose 10-40 nM
[30] = Tmax in male Sprague-Dawley rat at 2 mg/kg, iv by UHPLC-MS/MS analysis; format: ADME, organism-based; settings: in vivo
[31] = Half life in male Sprague-Dawley rat at 2 mg/kg, iv by UHPLC-MS/MS analysis; format: ADME, organism-based; settings: in vivo
NCI-H1581 [32] = assay: Inhibition of cell migration in human NCI-H1581 cells at 10 to 40 nM incubated for 48 hrs by crystal violet staining based transwell assay; format: functional; settings: dose 10-40 nM
[33] = Toxicity in BALB/c nude mouse xenografted with rat L6 cells harboring FGFR V561M mutant assessed as change in liver weight at 30 to 60 mg/kg and measured daily for 14 days; format: organism-based; settings: in vivo, 336 h, dose 30-60 mg/kg, time 14 day
[34] = Toxicity in BALB/c nude mouse xenografted with human NCI-H1581 cells assessed as change in liver weight and measured after 14 days; settings: 336 h, time 14 day
[35] = Toxicity in ICR mouse assessed as change in kidney weight at 80 mg/kg, po measured after 7 days; format: organism-based; settings: in vivo, 168 h, time 7 day

For `C=CC(=O)Nc1ccc(Nc2nc(Nc3ccc(N4C[C@@H](C)N[C@@H](C)C4)c(OC)c3)ncc2Cl)cc1Cl`, the IC50 [1] was 486 nM, the inhibition (A549 [2]) was “Dose-dependent-effect” and the Activity [3] was “Not active; Reduced Affinities Observed”. For the same compound, the Activity [4] was “Non-toxic”, the inhibition at 0.04 µM (NCI-H1581 [5]) was 40% and the inhibition (Mus musculus [6]) was “Active”. For the same compound, the Activity [7] was “Non-toxic”, the inhibition (A549 [8]) was “Active” and the Activity [9] was “Non-toxic”. The Activity [10] was “Non-toxic”, the Activity [11] was “Active” and the IC50 [12] was 1.5 nM. The inhibition (Mus musculus [13]) was “Active”, the Activity (NCI-H1581 [14]) was “Active” and the inhibition (NCI-H1581 [15]) was “Active; Stronger Inhibition Observed”. For the same compound, the inhibition [16] was “Not active; Moderate To Weak Inhibitory Activity Observed”, the Cmax [17] was 816 ng/mL and the inhibition (Mus musculus [18]) was “Active”. For the same compound, the Activity (L6) was “Active”, the Activity [19] was “Non-toxic” and the Activity [20] was “Non-toxic”. The IC50 (NCI-H1581 [21]) was 18 nM, the Activity [22] was “Non-toxic” and the Activity [23] was “Non-toxic”. For the same compound, the AUC(0-inf) [24] was 12900 ng·h/mL, the IC50 [25] was 19.4 nM and the IC50 (A549 [26]) was 380 nM. For the same compound, the Activity [27] was “Non-toxic”, the Activity [28] was “Non-toxic” and the inhibition (NCI-H1581 [29]) was “Dose-dependent-effect”. For the same compound, the Tmax [30] was 4.8 min, the half-life [31] was 3.55 h and the inhibition (NCI-H1581 [32]) was “Active”. The Activity [33] was “Non-toxic”, the Activity [34] was “Non-toxic” and the Activity [35] was “Non-toxic”.
